This is an account of results in patent publication US7429670B2 (The Trustees of Columbia University in the City of New York, priority 2003, dated 2008).

The first test deals with T1, human homomeric α1 GlyR (Homo sapiens, UniProt P23415).
T1 construct: expressed in transfected cells
T1 sequence (P23415 29-457): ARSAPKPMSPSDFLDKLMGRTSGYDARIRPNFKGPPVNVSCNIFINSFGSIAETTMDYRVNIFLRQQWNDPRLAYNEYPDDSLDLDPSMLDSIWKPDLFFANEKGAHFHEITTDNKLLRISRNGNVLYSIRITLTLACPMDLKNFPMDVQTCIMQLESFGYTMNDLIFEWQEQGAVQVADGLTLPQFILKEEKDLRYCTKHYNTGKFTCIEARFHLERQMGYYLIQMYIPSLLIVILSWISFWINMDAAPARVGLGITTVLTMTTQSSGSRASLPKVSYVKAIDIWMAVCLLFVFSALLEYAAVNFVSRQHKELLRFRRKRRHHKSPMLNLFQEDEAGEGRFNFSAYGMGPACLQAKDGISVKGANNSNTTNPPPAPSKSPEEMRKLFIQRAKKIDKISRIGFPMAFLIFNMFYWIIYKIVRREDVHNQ
Put plainly: Functional glycine receptor assay (FLIPR Membrane Potential Assay). Conditions: 30 uM concentration of test compound. More on the design: antagonist activity at GlyR (in words): dose or concentration left out as unconfirmed. The format is cell-based.
In the case of “10-Benzyloxy-isoGC-6-benzoate [Compound 17]”, the “inhibition of glycine responses” value is 39%.

Staying with this test, now noted: 100 μM test compound; 100 μM glycine-induced response; α1 GlyR-HEK293 cells; Table 2.
As to “1-(Morpholine-4-carbonyloxy)-10-(4-methoxy-benzyloxy)-GC [Compound 51]”, the “% inhibition” value is recorded as “NI (Inhibition below 20% is characterized as no inhibition (NI))”.

Take “1-(Morpholine-4-carbonyloxy)-10-benzyloxy-GC [Compound 41]”: the “% inhibition” value is on record as “NI (Inhibition below 20% is characterized as no inhibition (NI))”.

With “1-(Piperidine-carbonyloxy)-10-(4-methoxy-benzyloxy)-GC [Compound 52]”, the “% inhibition” value is given as “NI (Inhibition below 20% is characterized as no inhibition (NI))”.

For the substance “1-(Piperidine-carbonyloxy)-10-benzyloxy-GC [Compound 42]”, the “% inhibition” value worked out at 31%.

Regarding “1-Methylcarbamoyloxy-10-(4-methoxy-benzyloxy)-GC [Compound 49]”, the “% inhibition” value was “NI (Inhibition below 20% is characterized as no inhibition (NI))”.

As for “1-Methylcarbamoyloxy-10-benzyloxy-GC [Compound 39]”, the “% inhibition” value is listed as “NI (Inhibition below 20% is characterized as no inhibition (NI))”.

For “1-tert-Butylcarbamoyloxy-10-(4-methoxy-benzyloxy)-GC [Compound 50]”, the “% inhibition” value is listed as 33%.

As to “1-tert-Butylcarbamoyloxy-10-benzyloxy-GC [Compound 40]”, the “% inhibition” value is 42%.

As to “7-(Morpholine-4-carbonyloxy)-10-(4-methoxy-benzyloxy)-GC [Compound 46]”, the “% inhibition” value is “NI (Inhibition below 20% is characterized as no inhibition (NI))”.

In the case of “7-(Morpholine-4-carbonyloxy)-10-benzyloxy-GC [Compound 36]”, the “% inhibition” value is reported as “NI (Inhibition below 20% is characterized as no inhibition (NI))”.

As to “7-(Piperidine-carbonyloxy)-10-(4-methoxy-benzyloxy)-GC [Compound 47]”, the “% inhibition” value is 29%.

On to “7-(Piperidine-carbonyloxy)-10-benzyloxy-GC [Compound 37]”, for which the “% inhibition” value is “NI (Inhibition below 20% is characterized as no inhibition (NI))”.

On to “7-Methylcarbamoyloxy-10-(4-methoxy-benzyloxy)-GC [Compound 44]”, for which the “% inhibition” value is “NI (Inhibition below 20% is characterized as no inhibition (NI))”.

On to “7-Methylcarbamoyloxy-10-benzyloxy-GC [Compound 34]”, for which the “% inhibition” value is recorded as “NI (Inhibition below 20% is characterized as no inhibition (NI))”.

As to “7-tert-Butylcarbamoyloxy-10-(4-methoxy-benzyloxy)-GC [Compound 45]”, the “% inhibition” value came to 39%.

For “7-tert-Butylcarbamoyloxy-10-benzyloxy-GC [Compound 35]”, the “% inhibition” value turned out to be 29%.

Still in this test, the particulars now being: 100 μM test compound; 100 μM glycine-induced response; α1 GlyR-HEK293 cells; Table 3.
In the case of “1-(Morpholine-4-carbonyloxy)-GC [Compound 59]”, the “% inhibition” value is listed as “NI (Inhibition below 20% is characterized as no inhibition (NI))”.

As for “1-(Piperidine-carbonyloxy)-GC [Compound 60]”, the “% inhibition” value amounted to 33%.

For 1-Methylcarbamoyloxy-GC [Compound 57], the “% inhibition” value was 76%.

Regarding “1-tert-Butylcarbamoyloxy-GC [Compound 58]”, the “% inhibition” value amounted to 71%.

Consider “7-(Morpholine-4-carbonyloxy)-GC [Compound 55]”, for which the “% inhibition” value was found to be 44%.

Consider “7-(Piperidine-carbonyloxy)-GC [Compound 56]”, for which the “% inhibition” value is 34%.

In the case of 7-Methylcarbamoyloxy-GC [Compound 53], the “% inhibition” value is given as “NI (Inhibition below 20% is characterized as no inhibition (NI))”.

In the case of “7-tert-Butylcarbamoyloxy-GC [Compound 54]”, the “% inhibition” value is “NI (Inhibition below 20% is characterized as no inhibition (NI))”.

The test is the same for the next values; noted with them: 100 μM test compound; 100 μM glycine-induced response; α1 GlyR-HEK293 cells; Table 4.
For the substance “10-(2-Pyridinyl-methoxy)-GC [Compound 25]”, the “% inhibition” value is given as 75%.

“10-(2-Pyridinyl-methoxy)-GC-7-benzoate [Compound 29]”: the “% inhibition” value worked out at 51%.

On to “10-(4-Methoxy-benzyloxy)-GC [Compound 24]”, for which the “% inhibition” value is recorded as 52%.

For the substance “10-(4-Methoxy-benzyloxy)-GC-1-benzoate [Compound 28]”, the “% inhibition” value is given as “NI (Inhibition below 20% is characterized as no inhibition (NI))”.

As for “10-(4-Methoxy-benzyloxy)-GC-7-benzoate [Compound 26]”, the “% inhibition” value is 35%.

Regarding 10-Benzyloxy-GC [Compound 16], the “% inhibition” value is listed as 59%.

As for “10-Benzyloxy-GC-1-benzoate [Compound 23]”, the “% inhibition” value came to 60%.

For the substance “10-Benzyloxy-GC-7-benzoate [Compound 21]”, the “% inhibition” value turned out to be 45%.

Take GC-1-benzoate [Compound 32]: the “% inhibition” value is listed as “NI (Inhibition below 20% is characterized as no inhibition (NI))”.

With GC-7-benzoate [Compound 30], the “% inhibition” value is listed as “NI (Inhibition below 20% is characterized as no inhibition (NI))”.

Staying with this test, now noted: 100 μM test compound; response induced by 100 μM glycine; α1 GlyR-HEK293 cells; Table 5.
Turning to “10-(4-Methoxy-benzyloxy)-isoGC-1,6-bisacetate [Compound 20]”, the “% inhibition” value is given as 36%.

“10-(4-Methoxy-benzyloxy)-isoGC-6-benzoate [Compound 27]”: the “% inhibition” value is given as 49%.

For the substance “10-Benzyloxy-isoGC-1,6-bisacetate [Compound 19]”, the “% inhibition” value amounted to 21%.

For the substance “10-Benzyloxy-isoGC-1,6-bisbenzoate [Compound 22]”, the “% inhibition” value turned out to be 42%.

As for “10-Benzyloxy-isoGC-6-benzoate [Compound 17]”, the “% inhibition” value is 90%.

As to IsoGC-6-benzoate [Compound 31], the “% inhibition” value stood at 63%.

Still in this test, the particulars now being: derivatives as printed.
Turning to GC-1-benzoate [Compound 32], the “antagonist activity at GlyR (in words)” value is “complete loss in activity”.

For the substance GC-7-benzoate [Compound 30], the “antagonist activity at GlyR (in words)” value is recorded as “complete loss in activity”.

Staying with this test, now noted: derivatives at a concentration of 100 mM; 100 mM glycine.
Take 1-Methylcarbamoyloxy-GC [Compound 57]: the “inhibition of the glycine responses” value was “ca. 70%”.

For the substance “1-tert-Butylcarbamoyloxy-GC [Compound 58]”, the “inhibition of the glycine responses” value is on record as “ca. 70%”.

With “10-(2-Pyridinyl-methoxy)-GC [Compound 25]”, the “inhibition of the glycine responses” value was 75%.

Take “10-Benzyloxy-isoGC-6-benzoate [Compound 17]”: the “inhibition of the glycine responses” value was 90%.

In general, % inhibition refers to the change of the read-out against control, counted positive when it falls.
